Measured values taken from US20050175535A1 (CV Therapeutics, Inc., priority 2000, published 2005).
Where two headings read alike, the source gives them in different places.

Assays:
[1] = tested on: rat isolated perfused heart; experiment: Coronary conductance / coronary perfusion pressure in isolated perfused rat hearts; settings: for EC50: Rattus norvegicus; for effect on coronary conductance: isolated rat hearts, in words
Procedure: Briefly, rats of either sex weighing 230-260 grams were anesthetized by intraperitoneal injection of a mixture of ketamine (100 mg/ml) and xylazine (20 mg/ml). The chest of each rat was opened and the heart removed, and rinsed in ice-cold modified Krebs-Henseleit (K-H) solution containing NaCl 117.9, KCl 4.5, CaCl2 2.5, MgSO4 1.18, KH2PO4 1.18, pyruvate 2.0 mmo/L. The aorta was cannulated and the heart was perfused at a flow rate of 10 ml/min with modified K-H solution. The K-H solution (pH 7.4) was gassed continuously with 95% O2 and 5% CO2 and warmed to 35±0.5° C. The heart was electrically paced at a fixed cycle length of 240 ms (250 beats/min) using a bipolar electrode placed in the left atrium. The electrical stimuli were generated by a Grass stimulator (Model S48, W. Warwick, R.I.) and delivered through a Stimuli Isolation Unit (Model SIU5, Astro-Med, Inc., NY) as square-wave pulses of 3-msec in duration and with an amplitude of at least twice the threshold intensity.
The identity of the adenosine receptor subtype (A1 or A2A) mediating the coronary vasodilation was determined.
Coronary perfusion pressure (CPP) was measured using a pressure transducer that was connected to the aortic cannula via a T-connector positioned approximately 3 cm above the heart. CPP was monitored throughout an experiment and recorded either on a chart recorder (Gould Recorder 2200S, Valley View, Ohio) or a computerized recording system (PowerLab/4S, ADInstruments Pty Ltd, Australia). Only hearts with CPP ranging from 60 to 85 mmHg (in the absence of drugs) were used in the study. CC conductance (in ml/min/mmHg) was calculated as the ratio between coronary perfusion rate (10 ml/min) and CPP.

[2] = molecular target: T1, A1 adenosine receptor (Rattus norvegicus, UniProt P25099); experiment: A-V nodal conduction time (negative dromotropic effect) in isolated rat hearts
T1 construct: Effect of concentration on AV conduction time and coronary conductance in isolated rat hearts; tissue Simonsen Laboratories (Gilroy, Calif.); host or cells: isolated perfused rat heart (Sprague Dawley)
T1 sequence (P25099 1-326): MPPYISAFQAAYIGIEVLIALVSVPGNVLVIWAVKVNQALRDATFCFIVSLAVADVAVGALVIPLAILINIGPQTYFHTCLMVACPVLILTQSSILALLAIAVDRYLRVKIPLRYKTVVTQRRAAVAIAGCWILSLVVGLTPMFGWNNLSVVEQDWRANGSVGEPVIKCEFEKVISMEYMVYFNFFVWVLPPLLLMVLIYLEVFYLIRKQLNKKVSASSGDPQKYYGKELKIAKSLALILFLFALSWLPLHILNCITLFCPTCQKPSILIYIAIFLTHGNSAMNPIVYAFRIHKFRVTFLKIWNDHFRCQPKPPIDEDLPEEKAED

[3] = molecular target: A2A adenosine receptors (Rattus norvegicus, UniProt P30543); experiment: Competitive radioligand binding, [3H]ZM241385, PC12 cell membranes
[4] = molecular target: T2, human A1 adenosine receptors (Homo sapiens, UniProt P30542); experiment: Competitive radioligand binding, [3H]CPX, CHO-hA1AdoR membranes; settings: for Ki: [3H]CPX; for affinity for the A1 receptor expressed by CHO-K1 cells: in words
T2 construct: expressed in transfected cells
T2 sequence (P30542 1-326): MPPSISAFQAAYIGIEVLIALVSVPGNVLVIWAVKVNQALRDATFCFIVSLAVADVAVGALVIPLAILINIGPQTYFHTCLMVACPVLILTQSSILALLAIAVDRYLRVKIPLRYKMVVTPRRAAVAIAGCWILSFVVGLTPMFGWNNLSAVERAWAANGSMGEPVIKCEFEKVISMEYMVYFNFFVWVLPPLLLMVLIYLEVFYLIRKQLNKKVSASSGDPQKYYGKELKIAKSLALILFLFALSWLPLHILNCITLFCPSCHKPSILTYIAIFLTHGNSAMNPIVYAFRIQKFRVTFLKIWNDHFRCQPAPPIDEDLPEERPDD
Procedure: The cell suspensions were homogenized and centrifuged at 48,000g for 15 minutes. The pellets were washed three times by re-suspension in ice-cold Tris-HCl buffer and centrifugation. The final pellet was re-suspended in Tris-HCl, aliquoted and frozen at −80° C. until used for receptor binding assays.

[5] = Coronary blood flow and hemodynamics in conscious dogs; format: in vivo; settings: for ED50: Canis lupus familiaris, read-out: ED50, increase in mean CBF
Procedure: Ten mongrel dogs (weighing 23-27 kg) were premedicated with Acepromazine (0.3 mg/kg im) and anesthetized with sodium pentobarbital (25 mg/kg) and then intubated and ventilated with room air. A thoracotomy was performed in the left fifth intercostal space using sterile surgical techniques. A Tygon catheter (Cardiovascular Instruments, Inc.) was placed in the descending thoracic aorta for the measurements of blood pressure. A solid-state pressure gauge (P6.5, Konisberg Instrument, Inc) was placed in the apex of the left ventricle for the measurement of the left ventricular systolic pressure (LVSP) and calculation of first derivative of left ventricular pressure (LV dP/dt). A Doppler transducer (Craig Hartley) was placed on the left circumflex coronary artery for measurement of CBF. An hydraulic coronary occluder (In Vivo Metric, Inc) was implanted in 4 dogs around the left circumflex coronary artery. The chest was closed in layers and the catheters and wires were run subcutaneously and exited in the interscapular area. The dogs were allowed 10 to 14 days to recover fully from the surgery and were trained to lie on a laboratory table. The protocols were approved by the Institutional Animal Care and Use Committee of New York Medical College and conform to the “Guiding Principles for the use and Care of Laboratory Animals” of the National Institute of Health and the American Physiology Society.
Arterial pressure was measured by connecting the previously implanted catheter to a strain-gauge transducer (P231D, Statham) and mean arterial pressure (MAP) was derived using 2-Hz low-pass filter. […] Left circumflex CBF was measured using a pulsed Doppler flowmeter (System 6, Triton technology), and mean CBF was derived using a 2-Hz low-pass filter. Mean CR was calculated as the quotient of MAP and CBF. Heart rate was monitored from the pressure pulse interval using a cardiotachometer (Beckman Instruments). The lead-2 of the electrocardiogram was recorded during the experiments in order to examine the alterations in the AV nodal conduction (PR interval). All signals were recorded on a direct-writing oscillograph (Gould 2800).
Hemodynamics were measured before, during and after each dose. Following each dose hemodynamics were allowed to return to baseline before the administration of the next dose. Changes in heart rate, blood pressure, CBF, and ECG were recorded.
Hemodynamic results are expressed as mean±SEM. […] Because no statistical differences were found among the baseline values between each dose for each parameter measure, the first baseline registered during each experiment was used as the control value.

[6] = read-out: EC50, Coronary Conductance (Rat Isolated Heart)
[7] = read-out: pEC50 ± SEM, Coronary Conductance (Rat Isolated Heart) (converted)
[8] = read-out: pKi ± SEM, CHO-hA1AdoR (converted)

Sequence of A2A adenosine receptors (P30543 whole entry): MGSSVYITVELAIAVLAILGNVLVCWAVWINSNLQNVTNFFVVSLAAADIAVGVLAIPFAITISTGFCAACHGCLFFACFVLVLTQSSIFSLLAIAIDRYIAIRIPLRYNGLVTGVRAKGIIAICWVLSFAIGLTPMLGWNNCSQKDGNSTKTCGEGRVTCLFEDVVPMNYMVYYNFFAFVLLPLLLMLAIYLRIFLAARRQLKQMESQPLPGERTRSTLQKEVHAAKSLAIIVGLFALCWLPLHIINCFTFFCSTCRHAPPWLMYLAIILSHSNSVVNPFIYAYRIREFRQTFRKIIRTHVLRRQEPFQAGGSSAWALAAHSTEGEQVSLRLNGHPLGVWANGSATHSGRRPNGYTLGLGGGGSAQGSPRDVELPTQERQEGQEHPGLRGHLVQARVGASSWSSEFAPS

Row | EC50 [1, 6] [nM] | EC50 [1, 7] [nM] | SMILES | effect on coronary conductance [1] | effect on A-V nodal conduction time [2] | Ki ([4]; read-out: Ki, CHO-hA1AdoR) [nM] | Ki [4, 8] [nM] | affinity for the A1 receptor expressed by CHO-K1 cells [4] | ED50 ([5]; IV bolus, conscious dogs) [mg/kg] | further results
1 | 68 | 64.6 | CCCCCn1cc(-c2nc(N)c3ncn(C4O[C@@H](CO)[C@H](O)[C@@H]4O)c3n2)cn1 (stereo partly shown) [CVT-3033] | increased coronary conductance in a concentration-dependent manner | did not prolong A-V nodal conduction time | 5840 | 5750 | relatively low affinities |  | Ki ([3]; binding affinity to A2A in PC12 cells (Ki)): 3620 nM; Ki ([3]; pKi ± SEM, PC12 cells (A2A), [3H]ZM241385): 3550 nM
2 | 59.2 | 57.5 | Nc1ncnc2c1ncn2[C@@H]1O[C@H](CO)[C@@H](O)[C@H]1O [Adenosine, adenosine, reference compound] | concentration-dependent increases in coronary conductance |  |  |  |  | 0.051 ± 0.015 | increase in LVSP ([5]; 67 μg/kg, conscious dogs): 12±3%; increase in LVSP ([5]; 134 μg/kg, conscious dogs): 12±3%; maximal decrease in CR ([5]; 267 μg/kg iv, conscious dogs): 73±1%; increase in LVSP ([5]; 267 μg/kg, conscious dogs): 18±6%; increase in dP/dt ([5]; 267 μg/kg, conscious dogs): 29±7%

Row | SMILES | EC50 [1, 6] [nM] | EC50 [1, 7] [nM] | effect on coronary conductance [1] | effect on A-V nodal conduction time [2] | Ki ([4]; read-out: Ki, CHO-hA1AdoR) [nM] | Ki [4, 8] [nM] | affinity for the A1 receptor expressed by CHO-K1 cells [4] | ED50 ([5]; IV bolus, conscious dogs) [mg/kg] | further results
3 | CNC(=O)c1cnn(-c2nc(N)c3ncn(C4O[C@@H](CO)[C@H](O)[C@@H]4O)c3n2)c1 (stereo partly shown) [CVT-3146] | 6.4 | 6.46 | increased coronary conductance in a concentration-dependent manner | did not prolong A-V nodal conduction time | > 16500 | 25700 | relatively low affinities | 0.00034 ± 8e-05 | decrease in coronary perfusion pressure ([1]; 10 nM, isolated rat heart): 23 mmHg; effect of 60 nM CPX (A1 antagonist) on the increase in coronary conductance ([1]; CVT-3146 10 nM): not affected; effect of 60 nM ZM241385 (A2a antagonist) on the increase in coronary conductance ([1]; CVT-3146 10 nM): completely reversed; coronary conductance ([1]; CVT-3146 10 nM, baseline 0.16±0.02, n=6 hearts): 0.22±0.01 ml mm Hg−1 min−1; agonist behaviour with respect to coronary artery conductance ([1]; isolated rat heart): full agonist; Ki [3]: 1730 nM; maximal decrease in CR ([5]; 2.5 μg/kg iv, conscious dogs): 73±2%; increase in dP/dt ([5]; 2.5 μg/kg, conscious dogs): 39±7%; maximal decrease in CR ([5]; 5 μg/kg iv, conscious dogs): 75±2%; maximal increase in mean CBF from baseline ([5]; IV bolus, conscious dogs, baseline 45±3 ml/min): 154 ± 16 mL/min; changes in LVSP ([5]; increasing doses, conscious dogs (data not shown)): did not cause significant changes in LVSP
